Laboratory results from PubChem BioAssay (NCI).
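Here, GI50 denotes the concentration required for 50% inhibition of growth. TGI marks complete inhibition of growth.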

Tests used:
Assay in all cases: DTP human tumour cell line panel, 384-well format
SNB-75 CNS = test system: SNB-75 CNS
A498 renal = test system: A498 renal
HOP-92 NSCLC = test system: HOP-92 NSCLC
OVCAR-8 ovarian = test system: OVCAR-8 ovarian
HOP-62 NSCLC = test system: HOP-62 NSCLC
RPMI-8226 leukemia = test system: RPMI-8226 leukemia
HS 578T breast = test system: HS 578T breast
U251 glioblastoma = test system: U251 glioblastoma
HT29 colon = test system: HT29 colon
NCI-H460 NSCLC = test system: NCI-H460 NSCLC
OVCAR-3 ovarian = test system: OVCAR-3 ovarian
SK-MEL-2 melanoma = test system: SK-MEL-2 melanoma
786-0 renal = test system: 786-0 renal
HL-60(TB) leukemia = test system: HL-60(TB) leukemia
SK-OV-3 ovarian = test system: SK-OV-3 ovarian
CAKI-1 renal = test system: CAKI-1 renal
UACC-257 melanoma = test system: UACC-257 melanoma
SNB-19 CNS = test system: SNB-19 CNS
SW-620 colon = test system: SW-620 colon
MOLT-4 leukemia = test system: MOLT-4 leukemia
UO-31 renal = test system: UO-31 renal
CCRF-CEM leukemia = test system: CCRF-CEM leukemia
MDA-MB-231 breast = test system: MDA-MB-231 breast
OVCAR-4 ovarian = test system: OVCAR-4 ovarian
ACHN renal = test system: ACHN renal
A549 NSCLC = test system: A549 NSCLC
MDA-MB-435 melanoma = test system: MDA-MB-435 melanoma
HCT-116 colon = test system: HCT-116 colon
MALME-3M melanoma = test system: MALME-3M melanoma
NCI-H23 lung = test system: NCI-H23 lung
BT-549 breast = test system: BT-549 breast
HCT-15 colon = test system: HCT-15 colon
OVCAR-5 ovarian = test system: OVCAR-5 ovarian
NCI-H522 lung = test system: NCI-H522 lung
KM12 colon = test system: KM12 colon
M14 melanoma = test system: M14 melanoma
SN12C renal = test system: SN12C renal
DU-145 prostate = test system: DU-145 prostate
NCI-H322M lung = test system: NCI-H322M lung
SF-295 CNS = test system: SF-295 CNS
PC-3 prostate = test system: PC-3 prostate
MDA-MB-468 breast = test system: MDA-MB-468 breast
SK-MEL-28 melanoma = test system: SK-MEL-28 melanoma
SF-539 CNS = test system: SF-539 CNS
TK-10 renal = test system: TK-10 renal
HCC-2998 colon = test system: HCC-2998 colon
K-562 leukemia = test system: K-562 leukemia
LOX IMVI melanoma = test system: LOX IMVI melanoma
NCI-H226 lung = test system: NCI-H226 lung
SF-268 CNS = test system: SF-268 CNS
SK-MEL-5 melanoma = test system: SK-MEL-5 melanoma
SR leukemia = test system: SR leukemia
UACC-62 melanoma = test system: UACC-62 melanoma
RXF 393 renal = test system: RXF 393 renal
IGROV1 ovarian = test system: IGROV1 ovarian
T-47D breast = test system: T-47D breast

SMILES: COc1ccc(-c2c(Nc3ccccn3)nc3c(C4=CCCCC4)c(-c4ccccc4)[nH]n3c2=O)cc1
- GI50 (SNB-75 CNS): 8110 nM
- TGI (SNB-75 CNS): > 100000 nM
- GI50 (A498 renal): 309 nM
- TGI (A498 renal): > 100000 nM
- GI50 (HOP-92 NSCLC): 1940 nM
- TGI (HOP-92 NSCLC): 74900 nM
- GI50 (OVCAR-8 ovarian): 2110 nM
- TGI (OVCAR-8 ovarian): > 100000 nM
- GI50 (HOP-62 NSCLC): 717 nM
- TGI (HOP-62 NSCLC): 9610 nM
- GI50 (RPMI-8226 leukemia): 288 nM
- TGI (RPMI-8226 leukemia): 1880 nM
- GI50 (HS 578T breast): 1060 nM
- TGI (HS 578T breast): 14500 nM
- GI50 (U251 glioblastoma): 1270 nM
- TGI (U251 glioblastoma): > 100000 nM
- GI50 (HT29 colon): 4210 nM
- TGI (HT29 colon): > 100000 nM
- GI50 (NCI-H460 NSCLC): 353 nM
- TGI (NCI-H460 NSCLC): 2760 nM
- GI50 (OVCAR-3 ovarian): 1000 nM
- TGI (OVCAR-3 ovarian): 3320 nM
- GI50 (SK-MEL-2 melanoma): 2180 nM
- TGI (SK-MEL-2 melanoma): 9100 nM
- GI50 ([…]-0 renal): 2410 nM
- TGI (786-0 renal): > 100000 nM
- GI50 (HL-60(TB) leukemia): 580 nM
- TGI (HL-60(TB) leukemia): 1850 nM
- GI50 (SK-OV-3 ovarian): 604 nM
- TGI (SK-OV-3 ovarian): > 100000 nM
- GI50 (CAKI-1 renal): 1380 nM
- TGI (CAKI-1 renal): > 100000 nM
- GI50 (UACC-257 melanoma): 1610 nM
- TGI (UACC-257 melanoma): > 100000 nM
- GI50 (SNB-19 CNS): 2000 nM
- TGI (SNB-19 CNS): > 100000 nM
- GI50 (SW-620 colon): 3000 nM
- TGI (SW-620 colon): > 100000 nM
- GI50 (MOLT-4 leukemia): 189 nM
- TGI (MOLT-4 leukemia): 431 nM
- GI50 (UO-31 renal): 3360 nM
- TGI (UO-31 renal): > 100000 nM
- GI50 (CCRF-CEM leukemia): 304 nM
- TGI (CCRF-CEM leukemia): 1100 nM
- GI50 (MDA-MB-231 breast): 1240 nM
- TGI (MDA-MB-231 breast): 6850 nM
- GI50 (OVCAR-4 ovarian): 1590 nM
- TGI (OVCAR-4 ovarian): > 100000 nM
- GI50 (ACHN renal): 1790 nM
- TGI (ACHN renal): > 100000 nM
- GI50 (A549 NSCLC): 1440 nM
- TGI (A549 NSCLC): > 100000 nM
- GI50 (MDA-MB-435 melanoma): 3080 nM
- TGI (MDA-MB-435 melanoma): > 100000 nM
- GI50 (HCT-116 colon): 1280 nM
- TGI (HCT-116 colon): 5720 nM
- GI50 (MALME-3M melanoma): 1290 nM
- TGI (MALME-3M melanoma): > 100000 nM
- GI50 (NCI-H23 lung): 1330 nM
- TGI (NCI-H23 lung): > 100000 nM
- GI50 (BT-549 breast): 461 nM
- TGI (BT-549 breast): > 100000 nM
- GI50 (HCT-15 colon): 1360 nM
- TGI (HCT-15 colon): > 100000 nM
- GI50 (OVCAR-5 ovarian): 2320 nM
- TGI (OVCAR-5 ovarian): > 100000 nM
- GI50 (NCI-H522 lung): 1040 nM
- TGI (NCI-H522 lung): 10900 nM
- GI50 (KM12 colon): 2160 nM
- TGI (KM12 colon): > 100000 nM
- GI50 (M14 melanoma): 841 nM
- TGI (M14 melanoma): > 100000 nM
- GI50 (SN12C renal): 1990 nM
- TGI (SN12C renal): > 100000 nM
- GI50 (DU-145 prostate): 727 nM
- TGI (DU-145 prostate): 9510 nM
- GI50 (NCI-H322M lung): 1060 nM
- TGI (NCI-H322M lung): > 100000 nM
- GI50 (SF-295 CNS): 1120 nM
- TGI (SF-295 CNS): > 100000 nM
- GI50 (PC-3 prostate): 1580 nM
- TGI (PC-3 prostate): > 100000 nM
- GI50 (MDA-MB-468 breast): 967 nM
- TGI (MDA-MB-468 breast): 2780 nM
- GI50 (SK-MEL-28 melanoma): 3090 nM
- TGI (SK-MEL-28 melanoma): > 100000 nM
- GI50 (SF-539 CNS): 1460 nM
- TGI (SF-539 CNS): > 100000 nM
- GI50 (TK-10 renal): 1640 nM
- TGI (TK-10 renal): > 100000 nM
- GI50 (HCC-2998 colon): 2410 nM
- TGI (HCC-2998 colon): > 100000 nM
- GI50 (K-562 leukemia): 928 nM
- TGI (K-562 leukemia): > 100000 nM
- GI50 (LOX IMVI melanoma): 989 nM
- TGI (LOX IMVI melanoma): 8410 nM
- GI50 (NCI-H226 lung): 2010 nM
- TGI (NCI-H226 lung): > 100000 nM
- GI50 (SF-268 CNS): 589 nM
- TGI (SF-268 CNS): > 100000 nM
- GI50 (SK-MEL-5 melanoma): 835 nM
- TGI (SK-MEL-5 melanoma): 2640 nM
- GI50 (SR leukemia): 222 nM
- TGI (SR leukemia): 1090 nM
- GI50 (UACC-62 melanoma): 890 nM
- TGI (UACC-62 melanoma): > 100000 nM
- GI50 (RXF 393 renal): 108 nM
- TGI (RXF 393 renal): 2720 nM
- GI50 (IGROV1 ovarian): 2450 nM
- TGI (IGROV1 ovarian): > 100000 nM
- GI50 (T-47D breast): 1060 nM
- TGI (T-47D breast): > 100000 nM
